# Key:
# [1] = test system: human non-small cell lung cancer NCI-H446; experiment: Inhibitory activity of larotaxel and tesetaxel derivatives on subcutaneously xenografted tumor NCI-H446 in nude mice; conditions: 12 mg/kg, D0 IV; for Weight change (%) D5: nude mice; for T/C (%) D20 / Tumor volume (mm^3) (D20) / Tumor inhibitory percent (%) D20 / Tumor volume (mm^3) (D0): NCI-H446 xenograft in nude mice; for Tumor inhibitory percent (%) D20: P = 0.000 vs control; for Tumor volume (mm^3) (D0): baseline at grouping (D0)
# Description: Human […] NCI-H446 cells were subcutaneously inoculated into nude mice.
# [2] = test system: human prostate cancer PC-3; experiment: Inhibitory activity of cabazitaxel derivatives on subcutaneously xenografted tumor PC-3 in nude mice; conditions: D0 IV; for Weight change (%) D6: nude mice; for T/C (%) D20 / Tumor volume (mm^3) (D20) / Tumor inhibitory percent (%) D20 / Tumor volume (mm^3) (D0): PC-3 xenograft in nude mice; for Tumor inhibitory percent (%) D20: P = 0.000 vs control; for Tumor volume (mm^3) (D0): baseline at grouping (D0)
# Description: Purpose: to evaluate and compare the inhibitory activity of the water soluble cabazitaxel derivatives and cabazitaxel on subcutaneously xenografted tumor of human prostate cancer PC-3 in nude mice.
# Human prostate cancer PC-3 cells were subcutaneously inoculated into nude mice. After the tumor volume reached 100-150 mm^3, the animals were randomly divided into several groups, and administered with the water soluble cabazitaxel derivatives of the following formula and cabazitaxel, respectively once on the same day (D0). The tumor volume was measured 2-3 times per week, the animals were weighed and the data were recorded until day 20 (D20) after grouping.
# The tumor volume (V) was calculated according to the equation: V=½×a×b^2, wherein a and b represent the length and the width, respectively.
# T/C (%)=(T−T0)/(C−C0)×100, wherein T and C represent the tumor volume at the end of the experiment; and T0 and C0 represent the tumor volume at the beginning of the experiment.
# [3] = In vitro dissociation in blood plasma of rat; assay type: in vitro ADME, SD rats; conditions: fresh SD rat plasma, 37° C.; for Sampling time/Dissociation percent (%) 2 min: 2 min incubation; for Sampling time/Dissociation percent (%) 5 min: 5 min incubation; for Sampling time/Dissociation percent (%) 10 min: 10 min incubation
# Procedure: The obtained water soluble taxane derivatives of the following formulae were formulated as 0.2 mg/ml aqueous solutions. […] After 2 min, 5 min and 10 min of incubation, 0.2 ml of solutions were respectively taken from each of the samples, and added to acetonitrile (0.4 ml) cooled to −20° C. for precipitation of protein.
# [4] = In vitro dissociation in blood plasma of rabbit; assay type: in vitro ADME, New Zealand white rabbits; conditions: fresh New Zealand white rabbit plasma, 37° C.
# Procedure: The obtained water soluble taxane derivatives of the following formulae were formulated as 0.2 mg/ml aqueous solutions. […]
Compound,T/C (%) D20 [1],Tumor volume (mm^3) (D20) [1],Tumor inhibitory percent (%) D20 [1],Tumor volume (mm^3) (D0) [1],Weight change (%) D6 ([2]; 13 mg/kg),T/C (%) D20 ([2]; 13 mg/kg),Tumor volume (mm^3) (D20) ([2]; 13 mg/kg),Tumor inhibitory percent (%) D20 ([2]; 13 mg/kg),Tumor volume (mm^3) (D0) ([2]; 13 mg/kg),other results
"CC(=O)OC1C(=O)C23CC2CC2OCC2(OC(C)=O)C3C(OC(=O)c2ccccc2)C2(O)CC(OC(=O)C(OC(=O)C(CCN(C)C(C)C)C(F)(F)F)C(NC(=O)OC(C)(C)C)c3ccccc3)C(C)=C1C2(C)C.O=C(O)C=CC(=O)O (mixture of isomers) [Compound C41, 2′-O-[4-N-methyl-N-isopropylamino-2(R,S)-2-trifluoromethylbutyryl]larotaxel maleate]",−34%,51.7 ± 11.9 mm^3,67%,109.8 ± 2.9 mm^3,,,,,,Weight change (%) D5 [1]: −10.5%
"CC(=O)OC12COC1CCC1(C)C3OC(CN(C)C)OC3C3=C(C)C(OC(=O)C(OC(=O)C(CCN(C)C(C)C)C(F)(F)F)C(NC(=O)OC(C)(C)C)c4ncccc4F)CC(O)(C(OC(=O)c4ccccc4)C12)C3(C)C.O=C(O)CCC(=O)O (mixture of isomers) [Compound C45, 2′-O-[4-N-methyl-N-isopropylamino-2(R,S)-2-trifluoromethylbutyryl]tesetaxel succinate]",−34%,53.4 ± 12.4 mm^3,85%,112.3 ± 3.1 mm^3,,,,,,Weight change (%) D5 [1]: −11.4%
"CC(=O)OC12COC1CCC1(C)C3OC(CN(C)C)OC3C3=C(C)C(OC(=O)C(OC(=O)C(F)CC(C)N4CCCC4)C(NC(=O)OC(C)(C)C)c4ncccc4F)CC(O)(C(OC(=O)c4ccccc4)C12)C3(C)C.O=S(=O)(O)O (mixture of isomers) [Compound C46, 2′-O-[4-(pyrrolidin-1-yl)amino-2(R,S)-fluorovaleryl]tesetaxel sulfate]",−23%,61.2 ± 14.2 mm^3,58%,111.7 ± 2.8 mm^3,,,,,,
"CO[C@H]1C(=O)[C@]2(C)[C@@H](OC)C[C@H]3OC[C@@]3(OC(C)=O)[C@H]2[C@H](OC(=O)c2ccccc2)[C@]2(O)C[C@H](OC(=O)[C@H](OC(=O)[C@H](F)CCN(C)C)[C@@H](NC(=O)OC(C)(C)C)c3ccccc3)C(C)=C1C2(C)C.CS(=O)(=O)O [Compound C7, 2′-O-[4-N,N-dimethylamino-2(R)-fluorobutyryl]cabazitaxel methanesulfonate]",,,,,−14.2%,−67%,31.5 ± 11.8 mm^3,154%,111.5 ± 2.2 mm^3,Sampling time/Dissociation percent (%) 2 min [3]: 49.7%; Sampling time/Dissociation percent (%) 5 min [3]: 88.9%; Sampling time/Dissociation percent (%) 10 min [3]: 100%; Sampling time/Dissociation percent (%) 2 min [4]: 78.4%; Sampling time/Dissociation percent (%) 5 min [4]: 94.8%; Sampling time/Dissociation percent (%) 10 min [4]: 100%
"CO[C@H]1C(=O)[C@]2(C)[C@@H](OC)C[C@H]3OC[C@@]3(OC(C)=O)[C@H]2[C@H](OC(=O)c2ccccc2)[C@]2(O)C[C@H](OC(=O)[C@H](OC(=O)[C@@H](F)CCN(C)C)[C@@H](NC(=O)OC(C)(C)C)c3ccccc3)C(C)=C1C2(C)C.CS(=O)(=O)O [Compound C8, 2′-O-[4-N,N-dimethylamino-2(S)-fluorobutyryl]cabazitaxel methanesulfonate]",,,,,−14.4%,−66%,32.1 ± 12.1 mm^3,151%,111.9 ± 2.0 mm^3,Sampling time/Dissociation percent (%) 2 min [3]: 49.4%; Sampling time/Dissociation percent (%) 5 min [3]: 88.4%; Sampling time/Dissociation percent (%) 10 min [3]: 100%; Sampling time/Dissociation percent (%) 2 min [4]: 85.6%; Sampling time/Dissociation percent (%) 5 min [4]: 94.5%; Sampling time/Dissociation percent (%) 10 min [4]: 100%
"CO[C@H]1C(=O)[C@]2(C)[C@@H](OC)C[C@H]3OC[C@@]3(OC(C)=O)[C@H]2[C@H](OC(=O)c2ccccc2)[C@]2(O)C[C@H](OC(=O)[C@H](OC(=O)C(F)CCN(C)C)[C@@H](NC(=O)OC(C)(C)C)c3ccccc3)C(C)=C1C2(C)C.CS(=O)(=O)O (stereo partly drawn) [Compound C9, 2′-O-[4-N,N-dimethylamino-2(R,S)-fluorobutyryl]cabazitaxel methanesulfonate]",,,,,−14.4%,−66%,32.5 ± 11.6 mm^3,151%,111.4 ± 2.3 mm^3,Sampling time/Dissociation percent (%) 2 min [3]: 49.3%; Sampling time/Dissociation percent (%) 5 min [3]: 88.6%; Sampling time/Dissociation percent (%) 10 min [3]: 100%; Sampling time/Dissociation percent (%) 2 min [4]: 81.2%; Sampling time/Dissociation percent (%) 5 min [4]: 96.7%; Sampling time/Dissociation percent (%) 10 min [4]: 100%
"CCN(C)CC[C@@H](F)C(=O)O[C@@H](C(=O)O[C@H]1C[C@@]2(O)[C@@H](OC(=O)c3ccccc3)[C@@H]3[C@]4(OC(C)=O)CO[C@@H]4C[C@H](OC)[C@@]3(C)C(=O)[C@H](OC)C(=C1C)C2(C)C)[C@@H](NC(=O)OC(C)(C)C)c1ccccc1.O=C(O)/C=C\C(=O)O [Compound C32, 2′-O-[4-N-methyl-N-ethylamino-2(R)-fluorobutyryl]cabazitaxel maleate]",,,,,−14.7%,−56%,35.8 ± 12.7 mm^3,128%,112.4 ± 3.0 mm^3,
"CCN(CC)CC[C@@H](F)C(=O)O[C@@H](C(=O)O[C@H]1C[C@@]2(O)[C@@H](OC(=O)c3ccccc3)[C@@H]3[C@]4(OC(C)=O)CO[C@@H]4C[C@H](OC)[C@@]3(C)C(=O)[C@H](OC)C(=C1C)C2(C)C)[C@@H](NC(=O)OC(C)(C)C)c1ccccc1.CS(=O)(=O)O [Compound C33, 2′-O-[4-N,N-diethylamino-2(R)-fluorobutyryl]cabazitaxel methanesulfonate]",,,,,−15.1%,−50%,38.6 ± 13.4 mm^3,114%,112.0 ± 2.4 mm^3,
"CO[C@H]1C(=O)[C@]2(C)[C@@H](OC)C[C@H]3OC[C@@]3(OC(C)=O)[C@H]2[C@H](OC(=O)c2ccccc2)[C@]2(O)C[C@H](OC(=O)[C@H](OC(=O)[C@H](F)CCN(C)C(C)C)[C@@H](NC(=O)OC(C)(C)C)c3ccccc3)C(C)=C1C2(C)C.Cl [Compound C34, 2′-O-[4-N-methyl-N-isopropylamino-2(R)-fluorobutyryl]cabazitaxel hydrochloride]",,,,,,−45%,42.8 ± 11.9 mm^3,101%,111.7 ± 3.2 mm^3,
"CO[C@H]1C(=O)[C@]2(C)[C@@H](OC)C[C@H]3OC[C@@]3(OC(C)=O)[C@H]2[C@H](OC(=O)c2ccccc2)[C@]2(O)C[C@H](OC(=O)[C@H](OC(=O)[C@@H](CCN(C)C)C(F)(F)F)[C@@H](NC(=O)OC(C)(C)C)c3ccccc3)C(C)=C1C2(C)C.CS(=O)(=O)O [Compound C35, 2′-O-[4-N,N-dimethylamino-2(R)-2-trifluoromethylbutyryl]cabazitaxel methanesulfonate]",,,,,−15.8%,−46%,42.3 ± 12.6 mm^3,105%,110.2 ± 4.6 mm^3,
"CO[C@H]1C(=O)[C@]2(C)[C@@H](OC)C[C@H]3OC[C@@]3(OC(C)=O)[C@H]2[C@H](OC(=O)c2ccccc2)[C@]2(O)C[C@H](OC(=O)[C@H](OC(=O)[C@@H](CCN(C)C)C(F)F)[C@@H](NC(=O)OC(C)(C)C)c3ccccc3)C(C)=C1C2(C)C.Cc1ccc(S(=O)(=O)O)cc1 [Compound C36, 2′-O-[4-N,N-dimethylamino-2(R)-2-difluoromethylbutyryl]cabazitaxel p-toluene sulfonate]",,,,,,−37%,,85%,,
"CC(=O)O[C@H]1C(=O)[C@]23C[C@H]2C[C@H]2OC[C@@]2(OC(C)=O)[C@H]3[C@H](OC(=O)c2ccccc2)[C@]2(O)C[C@H](OC(=O)[C@H](OC(=O)[C@H](F)CCN(C)C)[C@@H](NC(=O)OC(C)(C)C)c3ccccc3)C(C)=C1C2(C)C.Cl [Compound C39, 2′-O-[4-N,N-dimethylamino-2(R)-fluorobutyryl]larotaxel hydrochloride]",−62%,34.9 ± 13.3 mm^3,148%,111.5 ± 2.2 mm^3,,,,,,Weight change (%) D5 [1]: −8.5%
"CO[C@H]1C(=O)[C@]2(C)[C@@H](OC)C[C@H]3OC[C@@]3(OC(C)=O)[C@H]2[C@H](OC(=O)c2ccccc2)[C@]2(O)C[C@H](OC(=O)[C@H](O)[C@@H](NC(=O)OC(C)(C)C)c3ccccc3)C(C)=C1C2(C)C [cabazitaxel, reference compound]",,,,,,,,,,Weight change (%) D6 ([2]; 7 mg/kg): −13.8%; T/C (%) D20 ([2]; 7 mg/kg): −27%; Tumor volume (mm^3) (D20) ([2]; 7 mg/kg): 79.9 ± 24.8 mm^3; Tumor inhibitory percent (%) D20 ([2]; 7 mg/kg): 127%; Tumor volume (mm^3) (D0) ([2]; 7 mg/kg): 111.7 ± 1.8 mm^3

# Source: patent US9650390B2, “Water-soluble taxane derivatives and uses thereof” (priority 2014, dated 2017)
